According to patent publication US20230139171A1 (SITA Information Networking Computing UK Limited, priority 2019, published 2023):
Where a name gives a salt, the structure may show the parent alone.

Legend:
Type in all cases: cell-based
[1] = molecular target: T1, human TLR7 (Homo sapiens, UniProt Q9NYK1); test: TLR7 inhibition reporter assay (HEK-Blue cells, SEAP reporter, gardiquimod stimulation); conditions: HEK-Blue cells overexpressing human TLR7, SEAP reporter, gardiquimod 7.5 μM; read-out: TLR7 IC50
T1 construct: host or cells: HEK-Blue cells
T1 sequence (Q9NYK1 27-1049): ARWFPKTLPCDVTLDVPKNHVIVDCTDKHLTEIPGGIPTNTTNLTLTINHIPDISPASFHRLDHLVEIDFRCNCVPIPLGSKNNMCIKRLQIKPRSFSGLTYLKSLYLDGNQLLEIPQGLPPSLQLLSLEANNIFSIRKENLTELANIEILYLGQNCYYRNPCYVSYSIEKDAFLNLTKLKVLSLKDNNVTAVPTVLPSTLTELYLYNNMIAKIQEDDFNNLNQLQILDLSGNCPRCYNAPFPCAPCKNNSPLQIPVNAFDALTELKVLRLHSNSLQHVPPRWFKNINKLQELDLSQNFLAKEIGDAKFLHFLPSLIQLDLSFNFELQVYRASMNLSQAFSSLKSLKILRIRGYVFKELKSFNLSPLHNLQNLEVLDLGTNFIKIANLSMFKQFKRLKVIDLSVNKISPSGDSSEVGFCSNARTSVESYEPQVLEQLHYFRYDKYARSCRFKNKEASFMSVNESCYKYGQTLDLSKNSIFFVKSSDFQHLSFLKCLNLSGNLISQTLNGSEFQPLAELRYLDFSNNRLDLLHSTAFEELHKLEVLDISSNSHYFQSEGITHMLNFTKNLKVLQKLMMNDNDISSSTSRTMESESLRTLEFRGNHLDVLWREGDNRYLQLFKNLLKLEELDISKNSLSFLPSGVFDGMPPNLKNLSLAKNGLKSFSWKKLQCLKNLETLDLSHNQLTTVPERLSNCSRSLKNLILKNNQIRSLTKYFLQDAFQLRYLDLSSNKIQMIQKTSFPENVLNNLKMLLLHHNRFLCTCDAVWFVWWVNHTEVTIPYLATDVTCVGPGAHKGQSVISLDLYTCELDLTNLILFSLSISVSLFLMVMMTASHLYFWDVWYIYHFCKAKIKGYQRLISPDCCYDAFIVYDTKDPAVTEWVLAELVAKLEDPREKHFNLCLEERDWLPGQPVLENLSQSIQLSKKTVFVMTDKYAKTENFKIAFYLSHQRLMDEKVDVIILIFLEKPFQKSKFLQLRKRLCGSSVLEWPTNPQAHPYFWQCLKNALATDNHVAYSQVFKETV
Outline: (§1)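 Screening used HEK-Blue cells overexpressing one human TLR (7, 8 or 9) and an IFN-β minimal promoter–NF-κB/AP-1 SEAP construct. Stimulation lasted 22 h at 37 °C with receptor-specific agonist: gardiquimod, R848 or ODN2006 at 7.5 μM, 15.9 μM and 5 nM.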

[2] = molecular target: T2, human TLR8 (Homo sapiens, UniProt Q9NR97); test: TLR8 inhibition reporter assay (HEK-Blue cells, SEAP reporter, R848 stimulation); conditions: HEK-Blue cells overexpressing human TLR8, SEAP reporter, R848 15.9 μM; read-out: TLR8 IC50
T2 construct: host or cells: HEK-Blue cells
T2 sequence (Q9NR97 27-1041): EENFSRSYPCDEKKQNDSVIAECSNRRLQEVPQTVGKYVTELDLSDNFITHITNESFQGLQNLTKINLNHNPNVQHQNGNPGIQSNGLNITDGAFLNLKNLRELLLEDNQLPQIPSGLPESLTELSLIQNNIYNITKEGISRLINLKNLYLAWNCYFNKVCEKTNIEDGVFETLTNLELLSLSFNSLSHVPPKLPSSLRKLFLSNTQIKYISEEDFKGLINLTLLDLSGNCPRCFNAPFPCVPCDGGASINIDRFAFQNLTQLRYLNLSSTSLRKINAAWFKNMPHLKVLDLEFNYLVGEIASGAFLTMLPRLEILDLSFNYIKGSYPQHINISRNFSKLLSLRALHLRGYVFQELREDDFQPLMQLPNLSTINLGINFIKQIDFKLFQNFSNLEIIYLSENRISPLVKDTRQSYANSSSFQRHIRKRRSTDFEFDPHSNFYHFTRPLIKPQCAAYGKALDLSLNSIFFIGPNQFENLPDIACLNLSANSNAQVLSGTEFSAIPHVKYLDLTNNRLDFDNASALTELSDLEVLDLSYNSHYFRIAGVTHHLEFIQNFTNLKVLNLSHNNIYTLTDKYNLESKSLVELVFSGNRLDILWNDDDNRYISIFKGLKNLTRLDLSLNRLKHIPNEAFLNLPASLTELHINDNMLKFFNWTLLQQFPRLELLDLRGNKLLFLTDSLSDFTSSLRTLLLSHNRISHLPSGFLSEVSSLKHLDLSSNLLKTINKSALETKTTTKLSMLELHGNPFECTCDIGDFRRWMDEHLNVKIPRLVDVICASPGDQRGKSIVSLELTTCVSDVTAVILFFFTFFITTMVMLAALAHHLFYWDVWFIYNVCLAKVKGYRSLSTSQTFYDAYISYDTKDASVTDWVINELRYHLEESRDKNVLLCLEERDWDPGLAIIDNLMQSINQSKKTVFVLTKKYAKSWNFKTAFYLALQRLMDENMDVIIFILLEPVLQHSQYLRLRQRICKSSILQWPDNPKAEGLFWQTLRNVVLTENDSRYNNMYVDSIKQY
Outline: as §1

[3] = molecular target: T3, human TLR9 (Homo sapiens, UniProt Q9NR96); test: TLR9 inhibition reporter assay (HEK-Blue cells, SEAP reporter, ODN2006 stimulation); conditions: HEK-Blue cells overexpressing human TLR9, SEAP reporter, ODN2006 5 nM
T3 construct: host or cells: HEK-Blue cells
T3 sequence (Q9NR96 26-1032): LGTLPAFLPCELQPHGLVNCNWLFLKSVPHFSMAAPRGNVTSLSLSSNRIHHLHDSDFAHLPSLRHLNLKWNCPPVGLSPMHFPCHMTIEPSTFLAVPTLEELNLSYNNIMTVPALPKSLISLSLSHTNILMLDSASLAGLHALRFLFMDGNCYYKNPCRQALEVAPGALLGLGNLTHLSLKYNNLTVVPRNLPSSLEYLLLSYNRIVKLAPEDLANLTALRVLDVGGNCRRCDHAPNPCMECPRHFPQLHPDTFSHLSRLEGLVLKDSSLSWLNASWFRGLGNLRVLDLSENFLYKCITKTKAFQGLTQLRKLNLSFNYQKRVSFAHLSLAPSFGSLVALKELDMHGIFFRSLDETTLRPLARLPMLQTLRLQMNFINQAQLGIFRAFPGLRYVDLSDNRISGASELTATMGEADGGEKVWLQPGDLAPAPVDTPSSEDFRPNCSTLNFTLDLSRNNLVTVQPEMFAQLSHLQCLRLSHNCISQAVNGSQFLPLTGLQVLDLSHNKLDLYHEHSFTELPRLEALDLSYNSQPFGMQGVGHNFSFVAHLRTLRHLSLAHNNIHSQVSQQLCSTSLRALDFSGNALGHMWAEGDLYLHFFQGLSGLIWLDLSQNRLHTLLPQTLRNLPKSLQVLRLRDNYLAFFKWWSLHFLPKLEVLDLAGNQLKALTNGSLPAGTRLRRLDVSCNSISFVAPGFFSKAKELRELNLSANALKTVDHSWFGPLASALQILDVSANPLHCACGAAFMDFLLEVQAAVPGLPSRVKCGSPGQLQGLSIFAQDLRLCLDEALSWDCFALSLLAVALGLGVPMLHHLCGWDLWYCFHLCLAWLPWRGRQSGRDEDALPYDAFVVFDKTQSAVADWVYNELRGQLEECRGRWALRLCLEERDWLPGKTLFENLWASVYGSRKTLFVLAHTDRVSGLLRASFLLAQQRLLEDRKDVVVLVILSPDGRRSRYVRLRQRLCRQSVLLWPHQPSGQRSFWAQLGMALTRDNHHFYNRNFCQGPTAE
Outline: as §1

Row | Compound | IC50 [1] [nM] | IC50 [2] [nM] | IC50 [3] [nM]
1 | CCN(C)C1CCN(c2nc3c(C(C)C)c(-c4cn5ncnc5c(C)c4C)[nH]c3s2)CC1 [Example 298, 1-(5-(7,8-dimethyl-[1,2,4]triazolo[1,5-a]pyridin-6-yl)-6-isopropyl-4H-pyrrolo[3,2-d]thiazol-2-yl)-N-ethyl-N-methylpiperidin-4-amine] | 1.56 | 0.43 | 7410
2 | Cc1c(-c2[nH]c3sc(N4CCC(N)CC4)nc3c2C(C)C)cn2ncnc2c1C [Example 299, 1-(5-(7,8-dimethyl-[1,2,4]triazolo[1,5-a]pyridin-6-yl)-6-isopropyl-4H-pyrrolo[3,2-d]thiazol-2-yl)piperidin-4-amine] | 1.42 | 0.72 | 12700
3 | Cc1c(-c2[nH]c3sc(N4CC5(CN(CC(C)C)C5)C4)nc3c2C(C)C)cn2ncnc2c1C [Example 300, 5-(7,8-dimethyl-[1,2,4]triazolo[1,5-a]pyridin-6-yl)-2-(6-isobutyl-2,6-diazaspiro[3.3]heptan-2-yl)-6-isopropyl-4H-pyrrolo[3,2-d]thiazole] | 10.7 | 3.24 | 10100
4 | Cc1c(-c2[nH]c3sc(N4CC5(CN(CC6CCOCC6)C5)C4)nc3c2C(C)C)cn2ncnc2c1C [Example 301, 5-(7,8-dimethyl-[1,2,4]triazolo[1,5-a]pyridin-6-yl)-6-isopropyl-2-(6-((tetrahydro-2H-pyran-4-yl)methyl)-2,6-diazaspiro[3.3]heptan-2-yl)-4H-pyrrolo[3,2-d]thiazole] | 7.77 | 1.53 | 12300
5 | Cc1c(-c2[nH]c3sc(N4CC5(CN(CC(C)(C)O)C5)C4)nc3c2C(C)C)cn2ncnc2c1C [Example 303, 1-(6-(5-(7,8-dimethyl-[1,2,4]triazolo[1,5-a]pyridin-6-yl)-6-isopropyl-4H-pyrrolo[3,2-d]thiazol-2-yl)-2,6-diazaspiro[3.3]heptan-2-yl)-2-methylpropan-2-ol] | 7.99 | 0.93 | 26400
6 | Cc1c(-c2[nH]c3sc(N4CC5(CN(CCS(C)(=O)=O)C5)C4)nc3c2C(C)C)cn2ncnc2c1C [Example 304, 5-(7,8-dimethyl-[1,2,4]triazolo[1,5-a]pyridin-6-yl)-6-isopropyl-2-(6-(2-(methylsulfonyl)ethyl)-2,6-diazaspiro[3.3]heptan-2-yl)-4H-pyrrolo[3,2-d]thiazole] | 8.2 | 19.2 | 35600
7 | Cc1c(-c2[nH]c3sc(N4CCNC[C@H]4C)nc3c2C(C)C)cn2ncnc2c1C [Example 308, (R)-5-(7,8-dimethyl-[1,2,4]triazolo[1,5-a]pyridin-6-yl)-6-isopropyl-2-(2-methylpiperazin-1-yl)-4H-pyrrolo[3,2-d]thiazole, HCl] | 0.18 | 0.09 | 15800
8 | Cc1c(-c2[nH]c3sc(N4C[C@@H](C)NC[C@@H]4C)nc3c2C(C)C)cn2ncnc2c1C [Example 309, 5-(7,8-dimethyl-[1,2,4]triazolo[1,5-a]pyridin-6-yl)-2-((2S,5R)-2,5-dimethylpiperazin-1-yl)-6-isopropyl-4H-pyrrolo[3,2-d]thiazole] | 6.67 | 4.19 | 14400
9 | Cc1c(-c2[nH]c3sc(N4CCNC[C@@H]4C)nc3c2C(C)C)cn2ncnc2c1C [Example 310, (S)-5-(7,8-dimethyl-[1,2,4]triazolo[1,5-a]pyridin-6-yl)-6-isopropyl-2-(2-methylpiperazin-1-yl)-4H-pyrrolo[3,2-d]thiazole] | 1.45 | 0.43 | 19300
10 | Cc1c(-c2[nH]c3sc(N4CCN(CC5CCOCC5)C[C@H]4C)nc3c2C(C)C)cn2ncnc2c1C [Example 317, (R)-5-(7,8-dimethyl-[1,2,4]triazolo[1,5-a]pyridin-6-yl)-6-isopropyl-2-(2-methyl-4-((tetrahydro-2H-pyran-4-yl)methyl)piperazin-1-yl)-4H-pyrrolo[3,2-d]thiazole] | 9.47 | 4.22 | 44400
11 | Cc1c(-c2[nH]c3sc(N4CCN(C5CCOCC5)C[C@H]4C)nc3c2C(C)C)cn2ncnc2c1C [Example 318, (R)-5-(7,8-dimethyl-[1,2,4]triazolo[1,5-a]pyridin-6-yl)-6-isopropyl-2-(2-methyl-4-(tetrahydro-2H-pyran-4-yl)piperazin-1-yl)-4H-pyrrolo[3,2-d] thiazole] | 6.23 | 0.83 | 21600
12 | Cc1c(-c2[nH]c3sc(N4CCN(C)C[C@H]4C)nc3c2C(C)C)cn2ncnc2c1C [Example 319, (R)-5-(7,8-dimethyl-[1,2,4]triazolo[1,5-a]pyridin-6-yl)-2-(2,4-dimethylpiperazin-1-yl)-6-isopropyl-4H-pyrrolo[3,2-d]thiazole] | 3.84 | 0.53 | 19400
